In ChEMBL document CHEMBL4507302, “Data for DCP probe TP-020” (2021):

What was measured:
[1] = molecular target: Serine/threonine-protein kinase Nek7 (Homo sapiens) (UniProt Q8TDX7); settings: Compound concentration 1000.0 nM
[2] = molecular target: Casein kinase I isoform alpha-like (Homo sapiens) (UniProt Q8N752); settings: Compound concentration 1000.0 nM
[3] = system: Proto-oncogene tyrosine-protein kinase receptor Ret (Homo sapiens), P07949 [V804M]; settings: Compound concentration 1000.0 nM
[4] = molecular target: Tyrosine-protein kinase ZAP-70 (Homo sapiens) (UniProt P43403); settings: Compound concentration 1000.0 nM
[5] = molecular target: Macrophage colony-stimulating factor 1 receptor (Homo sapiens) (UniProt P07333); settings: Compound concentration 1000.0 nM
Macrophage colony-stimulating factor 1 receptor (Homo sapiens), sequence (P07333 whole entry): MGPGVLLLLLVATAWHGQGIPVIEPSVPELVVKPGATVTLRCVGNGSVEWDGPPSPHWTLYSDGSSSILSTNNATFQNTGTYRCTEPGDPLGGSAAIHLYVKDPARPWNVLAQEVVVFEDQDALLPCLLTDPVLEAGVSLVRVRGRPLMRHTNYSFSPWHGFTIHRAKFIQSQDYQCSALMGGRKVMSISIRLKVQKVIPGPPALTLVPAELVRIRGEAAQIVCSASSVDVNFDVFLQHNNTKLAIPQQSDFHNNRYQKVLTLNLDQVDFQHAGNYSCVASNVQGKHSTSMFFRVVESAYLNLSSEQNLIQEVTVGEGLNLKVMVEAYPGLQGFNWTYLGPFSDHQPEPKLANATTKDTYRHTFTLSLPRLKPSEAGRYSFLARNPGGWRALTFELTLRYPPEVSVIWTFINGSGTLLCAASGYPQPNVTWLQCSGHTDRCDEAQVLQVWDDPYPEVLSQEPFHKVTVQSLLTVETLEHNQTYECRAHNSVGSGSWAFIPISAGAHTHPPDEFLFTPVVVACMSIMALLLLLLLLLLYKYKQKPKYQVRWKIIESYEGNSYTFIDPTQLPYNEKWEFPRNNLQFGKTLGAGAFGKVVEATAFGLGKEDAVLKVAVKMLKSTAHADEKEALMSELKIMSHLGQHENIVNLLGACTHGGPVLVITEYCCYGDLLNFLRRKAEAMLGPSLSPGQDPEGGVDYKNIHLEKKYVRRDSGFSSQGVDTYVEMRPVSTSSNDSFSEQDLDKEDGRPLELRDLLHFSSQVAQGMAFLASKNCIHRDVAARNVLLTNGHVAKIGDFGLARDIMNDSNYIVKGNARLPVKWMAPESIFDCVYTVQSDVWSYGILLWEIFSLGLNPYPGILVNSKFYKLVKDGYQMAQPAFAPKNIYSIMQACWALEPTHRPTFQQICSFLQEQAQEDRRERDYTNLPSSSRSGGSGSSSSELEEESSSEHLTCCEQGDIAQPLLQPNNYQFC

[6] = system: Epidermal growth factor receptor (Homo sapiens), P00533 [UNDEFINED MUTATION]; settings: Compound concentration 1000.0 nM
Epidermal growth factor receptor (Homo sapiens), P00533 [UNDEFINED MUTATION], sequence (P00533 whole entry, looked up, change not shown): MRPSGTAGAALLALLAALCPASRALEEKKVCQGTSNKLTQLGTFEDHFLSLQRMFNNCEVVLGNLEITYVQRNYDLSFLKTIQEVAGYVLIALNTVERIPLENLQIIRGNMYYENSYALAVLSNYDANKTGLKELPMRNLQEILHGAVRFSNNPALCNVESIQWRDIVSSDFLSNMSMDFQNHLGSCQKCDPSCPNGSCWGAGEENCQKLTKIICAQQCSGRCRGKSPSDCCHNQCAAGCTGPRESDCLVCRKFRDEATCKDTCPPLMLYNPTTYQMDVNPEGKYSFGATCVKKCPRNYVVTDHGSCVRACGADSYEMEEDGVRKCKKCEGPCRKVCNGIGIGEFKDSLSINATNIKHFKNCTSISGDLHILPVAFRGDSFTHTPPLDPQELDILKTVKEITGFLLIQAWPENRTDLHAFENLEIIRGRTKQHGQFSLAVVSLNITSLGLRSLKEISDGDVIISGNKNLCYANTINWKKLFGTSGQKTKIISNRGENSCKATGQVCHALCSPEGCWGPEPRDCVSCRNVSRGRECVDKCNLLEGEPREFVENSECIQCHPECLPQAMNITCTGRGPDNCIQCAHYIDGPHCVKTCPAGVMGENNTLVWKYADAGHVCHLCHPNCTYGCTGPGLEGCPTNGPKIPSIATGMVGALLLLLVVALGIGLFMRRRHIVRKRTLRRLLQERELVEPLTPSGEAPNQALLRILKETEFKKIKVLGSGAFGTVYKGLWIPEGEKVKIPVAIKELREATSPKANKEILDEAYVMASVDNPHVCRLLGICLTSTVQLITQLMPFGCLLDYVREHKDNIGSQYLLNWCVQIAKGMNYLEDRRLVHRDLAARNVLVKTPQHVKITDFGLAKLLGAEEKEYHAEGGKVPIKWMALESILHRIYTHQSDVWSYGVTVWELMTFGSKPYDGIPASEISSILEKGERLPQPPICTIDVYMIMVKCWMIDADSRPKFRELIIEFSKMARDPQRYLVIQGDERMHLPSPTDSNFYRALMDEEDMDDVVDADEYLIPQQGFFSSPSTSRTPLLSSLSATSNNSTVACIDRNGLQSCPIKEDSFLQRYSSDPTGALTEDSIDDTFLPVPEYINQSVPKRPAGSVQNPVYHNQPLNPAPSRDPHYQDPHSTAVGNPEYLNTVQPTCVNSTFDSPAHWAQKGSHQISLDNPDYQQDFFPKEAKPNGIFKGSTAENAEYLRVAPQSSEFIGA

[7] = molecular target: MAP kinase-activated protein kinase 2 (Homo sapiens) (UniProt P49137); settings: Compound concentration 1000.0 nM
[8] = molecular target: Histamine H2 receptor (Homo sapiens) (UniProt P25021); settings: Compound concentration 10.0 uM
[9] = molecular target: cAMP-dependent protein kinase catalytic subunit beta (Homo sapiens) (UniProt P22694); settings: Compound concentration 1000.0 nM
[10] = molecular target: cAMP-dependent protein kinase catalytic subunit alpha (Homo sapiens) (UniProt P17612); settings: Compound concentration 1000.0 nM
[11] = molecular target: Cyclin-dependent kinase-like 3 (Homo sapiens) (UniProt Q8IVW4); settings: Compound concentration 1000.0 nM
Cyclin-dependent kinase-like 3 (Homo sapiens), sequence (Q8IVW4 whole entry, looked up): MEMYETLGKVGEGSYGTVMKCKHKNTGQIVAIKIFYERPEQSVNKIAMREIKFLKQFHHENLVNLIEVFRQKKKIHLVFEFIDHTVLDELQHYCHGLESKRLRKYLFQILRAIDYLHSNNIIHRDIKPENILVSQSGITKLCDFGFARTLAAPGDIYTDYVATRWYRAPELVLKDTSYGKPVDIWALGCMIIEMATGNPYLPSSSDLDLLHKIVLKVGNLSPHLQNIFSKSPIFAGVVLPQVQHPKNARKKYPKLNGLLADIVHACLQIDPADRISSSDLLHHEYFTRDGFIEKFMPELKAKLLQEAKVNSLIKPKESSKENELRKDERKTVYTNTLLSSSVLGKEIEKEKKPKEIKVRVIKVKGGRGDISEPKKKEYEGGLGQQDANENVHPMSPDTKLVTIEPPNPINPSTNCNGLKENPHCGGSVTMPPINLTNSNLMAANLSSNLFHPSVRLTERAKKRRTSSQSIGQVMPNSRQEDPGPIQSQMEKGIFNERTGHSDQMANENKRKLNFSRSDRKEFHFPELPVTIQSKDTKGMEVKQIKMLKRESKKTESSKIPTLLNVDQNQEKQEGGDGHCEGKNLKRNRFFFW

[12] = molecular target: Fibroblast growth factor receptor 2 (Homo sapiens) (UniProt P21802); settings: Compound concentration 1000.0 nM
[13] = molecular target: Fibroblast growth factor receptor 3 (Homo sapiens) (UniProt P22607); settings: Compound concentration 1000.0 nM
[14] = molecular target: Atypical kinase COQ8A, mitochondrial (Homo sapiens) (UniProt Q8NI60); settings: Compound concentration 1000.0 nM
[15] = system: Phosphatidylinositol 4,5-bisphosphate 3-kinase catalytic subunit alpha isoform (Homo sapiens), P42336 [H1047L]; settings: Compound concentration 1000.0 nM
[16] = molecular target: Tyrosine-protein kinase SYK (Homo sapiens) (UniProt P43405); settings: Compound concentration 1000.0 nM
[17] = molecular target: Serine/threonine-protein kinase 38-like (Homo sapiens) (UniProt Q9Y2H1); settings: Compound concentration 1000.0 nM
[18] = molecular target: Calcium/calmodulin-dependent protein kinase type 1B (Homo sapiens) (UniProt Q6P2M8); settings: Compound concentration 1000.0 nM
[19] = molecular target: Cytoplasmic tyrosine-protein kinase BMX (Homo sapiens) (UniProt P51813); settings: Compound concentration 1000.0 nM
[20] = molecular target: Serine/threonine-protein kinase WNK1 (Homo sapiens) (UniProt Q9H4A3); settings: Compound concentration 1000.0 nM
[21] = molecular target: SRSF protein kinase 1 (Homo sapiens) (UniProt Q96SB4); settings: Compound concentration 1000.0 nM
[22] = molecular target: 5-hydroxytryptamine receptor 1E (Homo sapiens) (UniProt P28566); settings: Compound concentration 10.0 uM
5-hydroxytryptamine receptor 1E (Homo sapiens), sequence (P28566 whole entry): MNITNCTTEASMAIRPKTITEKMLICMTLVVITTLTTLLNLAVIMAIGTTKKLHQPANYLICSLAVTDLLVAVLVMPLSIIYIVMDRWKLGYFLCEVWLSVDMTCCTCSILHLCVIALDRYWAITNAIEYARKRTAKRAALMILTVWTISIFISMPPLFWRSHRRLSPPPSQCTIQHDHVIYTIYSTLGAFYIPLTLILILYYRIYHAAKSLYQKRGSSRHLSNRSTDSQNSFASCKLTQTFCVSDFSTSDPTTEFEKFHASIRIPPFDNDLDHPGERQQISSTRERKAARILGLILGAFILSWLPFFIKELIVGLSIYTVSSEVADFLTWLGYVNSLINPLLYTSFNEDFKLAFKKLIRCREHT

[23] = molecular target: Mitogen-activated protein kinase kinase kinase 14 (Homo sapiens) (UniProt Q99558); settings: Compound concentration 1000.0 nM
[24] = molecular target: Serine/threonine-protein kinase 33 (Homo sapiens) (UniProt Q9BYT3); settings: Compound concentration 1000.0 nM
[25] = molecular target: Mitogen-activated protein kinase kinase kinase 9 (Homo sapiens) (UniProt P80192); settings: Compound concentration 1000.0 nM
[26] = molecular target: Maternal embryonic leucine zipper kinase (Homo sapiens) (UniProt Q14680); settings: Compound concentration 1000.0 nM
[27] = molecular target: Serine/threonine-protein kinase ULK2 (Homo sapiens) (UniProt Q8IYT8); settings: Compound concentration 1000.0 nM
[28] = system: ALK tyrosine kinase receptor (Homo sapiens), Q9UM73 [L1196M]; settings: Compound concentration 1000.0 nM
[29] = molecular target: Mitogen-activated protein kinase kinase kinase 13 (Homo sapiens) (UniProt O43283); settings: Compound concentration 1000.0 nM
[30] = molecular target: Cyclin-dependent kinase 19 (Homo sapiens) (UniProt Q9BWU1); settings: Compound concentration 1000.0 nM
Cyclin-dependent kinase 19 (Homo sapiens), sequence (Q9BWU1 whole entry): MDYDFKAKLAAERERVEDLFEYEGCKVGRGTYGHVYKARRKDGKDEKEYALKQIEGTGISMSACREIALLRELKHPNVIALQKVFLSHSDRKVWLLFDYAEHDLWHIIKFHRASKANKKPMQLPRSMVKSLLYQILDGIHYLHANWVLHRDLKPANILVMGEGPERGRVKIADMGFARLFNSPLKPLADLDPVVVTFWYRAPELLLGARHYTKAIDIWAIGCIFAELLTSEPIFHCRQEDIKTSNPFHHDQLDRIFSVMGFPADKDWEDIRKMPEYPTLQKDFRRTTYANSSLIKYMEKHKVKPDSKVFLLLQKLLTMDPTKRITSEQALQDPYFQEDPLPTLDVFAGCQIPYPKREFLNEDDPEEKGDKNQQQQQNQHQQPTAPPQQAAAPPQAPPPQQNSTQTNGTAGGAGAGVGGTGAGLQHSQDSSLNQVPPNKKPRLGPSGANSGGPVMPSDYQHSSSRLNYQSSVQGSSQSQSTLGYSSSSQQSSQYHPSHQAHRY

[31] = system: Tyrosine-protein kinase ABL1 (Homo sapiens), P00519 [F317I]; settings: Compound concentration 1000.0 nM
[32] = molecular target: Tyrosine-protein kinase receptor TYRO3 (Homo sapiens) (UniProt Q06418); settings: Compound concentration 1000.0 nM
[33] = molecular target: Serine/threonine-protein kinase SBK1 (Homo sapiens) (UniProt Q52WX2); settings: Compound concentration 1000.0 nM
Serine/threonine-protein kinase SBK1 (Homo sapiens), sequence (Q52WX2 whole entry): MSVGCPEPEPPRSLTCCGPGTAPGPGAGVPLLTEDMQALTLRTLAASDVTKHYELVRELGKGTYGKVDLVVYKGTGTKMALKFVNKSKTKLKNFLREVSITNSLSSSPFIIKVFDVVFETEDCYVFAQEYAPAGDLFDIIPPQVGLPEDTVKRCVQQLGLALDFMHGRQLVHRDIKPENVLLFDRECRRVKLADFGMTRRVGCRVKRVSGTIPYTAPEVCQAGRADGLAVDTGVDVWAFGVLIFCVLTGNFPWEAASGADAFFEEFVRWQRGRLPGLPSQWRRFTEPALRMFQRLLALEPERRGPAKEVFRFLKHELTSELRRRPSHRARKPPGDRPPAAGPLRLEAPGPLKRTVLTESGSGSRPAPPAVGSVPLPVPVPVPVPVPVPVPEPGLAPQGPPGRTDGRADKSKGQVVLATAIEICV

[34] = molecular target: Tyrosine-protein kinase JAK2 (Homo sapiens) (UniProt O60674); settings: Compound concentration 1000.0 nM
[35] = molecular target: Mitogen-activated protein kinase kinase kinase 15 (Homo sapiens) (UniProt Q6ZN16); settings: Compound concentration 1000.0 nM
[36] = molecular target: Wee1-like protein kinase (Homo sapiens) (UniProt P30291); settings: Compound concentration 1000.0 nM
[37] = molecular target: Citron Rho-interacting kinase (Homo sapiens) (UniProt O14578); settings: Compound concentration 1000.0 nM
[38] = molecular target: Serine/threonine-protein kinase 35 (Homo sapiens) (UniProt Q8TDR2); settings: Compound concentration 1000.0 nM
[39] = molecular target: Serine/threonine-protein kinase Chk1 (Homo sapiens) (UniProt O14757); settings: Compound concentration 1000.0 nM
[40] = molecular target: Casein kinase II subunit alpha' (Homo sapiens) (UniProt P19784); settings: Compound concentration 1000.0 nM
[41] = molecular target: Tyrosine-protein kinase Tec (Homo sapiens) (UniProt P42680); settings: Compound concentration 1000.0 nM
[42] = molecular target: Serine/threonine-protein kinase OSR1 (Homo sapiens) (UniProt O95747); settings: Compound concentration 1000.0 nM
[43] = molecular target: Mitogen-activated protein kinase kinase kinase kinase 5 (Homo sapiens) (UniProt Q9Y4K4); settings: Compound concentration 1000.0 nM
Mitogen-activated protein kinase kinase kinase kinase 5 (Homo sapiens), sequence (Q9Y4K4 whole entry, looked up): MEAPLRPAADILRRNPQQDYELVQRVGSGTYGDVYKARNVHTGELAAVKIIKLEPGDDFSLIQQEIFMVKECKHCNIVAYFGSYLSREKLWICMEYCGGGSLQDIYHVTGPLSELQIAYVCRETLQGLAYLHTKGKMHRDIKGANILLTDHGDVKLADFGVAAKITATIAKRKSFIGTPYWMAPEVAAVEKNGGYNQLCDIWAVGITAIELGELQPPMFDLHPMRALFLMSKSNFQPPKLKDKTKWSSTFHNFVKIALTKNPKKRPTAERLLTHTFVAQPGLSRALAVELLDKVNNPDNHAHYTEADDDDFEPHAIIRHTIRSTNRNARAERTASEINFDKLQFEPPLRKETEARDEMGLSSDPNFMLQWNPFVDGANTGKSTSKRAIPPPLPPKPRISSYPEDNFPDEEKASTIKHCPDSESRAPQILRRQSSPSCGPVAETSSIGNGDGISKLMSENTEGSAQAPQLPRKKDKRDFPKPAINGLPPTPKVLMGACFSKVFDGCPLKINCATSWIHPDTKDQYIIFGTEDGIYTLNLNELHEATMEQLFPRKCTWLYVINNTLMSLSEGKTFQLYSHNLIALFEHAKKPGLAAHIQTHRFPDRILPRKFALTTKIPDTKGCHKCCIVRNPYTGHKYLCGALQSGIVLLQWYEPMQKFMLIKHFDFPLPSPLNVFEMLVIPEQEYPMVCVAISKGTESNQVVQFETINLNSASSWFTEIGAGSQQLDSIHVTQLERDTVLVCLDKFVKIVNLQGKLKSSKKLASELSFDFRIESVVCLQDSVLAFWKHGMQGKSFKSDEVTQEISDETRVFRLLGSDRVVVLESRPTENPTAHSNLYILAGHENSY

[44] = molecular target: D(1B) dopamine receptor (Homo sapiens) (UniProt P21918); settings: Compound concentration 10.0 uM
[45] = molecular target: Bone morphogenetic protein receptor type-2 (Homo sapiens) (UniProt Q13873); settings: Compound concentration 1000.0 nM

Nc1cnc(N2CCc3cc(S(=O)(=O)Nc4c(F)cc(Cl)cc4F)cc(N4CCCC4=O)c32)nc1 gave a residual activity [1] of 96%, a residual activity [2] of 100% and a residual activity [3] of 100%. The residual activity [4] was 85%, the residual activity [5] was 100% and the residual activity [6] was 100%. It also gave a residual activity [7] of 100%, an inhibition [8] of 8.19% and a residual activity [9] of 100%. It also gave a residual activity [10] of 100%, a residual activity [11] of 100% and a residual activity [12] of 100%. The residual activity [13] was 100%, the residual activity [14] was 100% and the residual activity [15] was 60%. It also gave a residual activity [16] of 100%, a residual activity [17] of 42% and a residual activity [18] of 67%. It also gave a residual activity [19] of 100%, a residual activity [20] of 100% and a residual activity [21] of 81%. For the same compound, the inhibition [22] was -4.55%, the residual activity [23] was 75% and the residual activity [24] was 80%. For the same compound, the residual activity [25] was 100%, the residual activity [26] was 90% and the residual activity [27] was 100%. The residual activity [28] was 81%, the residual activity [29] was 100% and the residual activity [30] was 100%. The residual activity [31] was 100%, the residual activity [32] was 100% and the residual activity [33] was 83%. The residual activity [34] was 100%, the residual activity [35] was 100% and the residual activity [36] was 72%. The residual activity [37] was 91%, the residual activity [38] was 100% and the residual activity [39] was 95%. For the same compound, the residual activity [40] was 98%, the residual activity [41] was 99% and the residual activity [42] was 75%. For the same compound, the residual activity [43] was 73%, the inhibition [44] was 7.88% and the residual activity [45] was 100%.
With Cn1nc(C(F)(F)F)cc1-c1cnc(N2CCc3cc(S(=O)(=O)Nc4c(F)cc(Cl)cc4F)cc(N4CCCC4=O)c32)nc1 [TP-020] the residual activity [1] was 100%, the residual activity [2] was 100% and the residual activity [3] was 98%. The residual activity [4] was 93%, the residual activity [5] was 91% and the residual activity [6] was 100%. The residual activity [7] was 73%, the inhibition [8] was 12.1% and the residual activity [9] was 81%. For the same compound, the residual activity [10] was 100%, the residual activity [11] was 100% and the residual activity [12] was 100%. The residual activity [13] was 100%, the residual activity [14] was 100% and the residual activity [15] was 94%. For the same compound, the residual activity [16] was 100%, the residual activity [17] was 88% and the residual activity [18] was 80%. The residual activity [19] was 81%, the residual activity [20] was 98% and the residual activity [21] was 77%. For the same compound, the inhibition [22] was 14.8%, the residual activity [23] was 79% and the residual activity [24] was 100%. It also gave a residual activity [25] of 100%, a residual activity [26] of 100% and a residual activity [27] of 74%. The residual activity [28] was 78%, the residual activity [29] was 79% and the residual activity [30] was 100%. It also gave a residual activity [31] of 71%, a residual activity [32] of 100% and a residual activity [33] of 92%. It also gave a residual activity [34] of 82%, a residual activity [35] of 81% and a residual activity [36] of 88%. The residual activity [37] was 100%, the residual activity [38] was 100% and the residual activity [39] was 100%. The residual activity [40] was 84%, the residual activity [41] was 79% and the residual activity [42] was 99%. The residual activity [43] was 88%, the inhibition [44] was 42.5% and the residual activity [45] was 77%.
